Measured values reported in paper PMC4304871 (Nature structural & molecular biology, 2014).

Test system: 10E8 antibody
Test: Competitive 10E8 ELISA binding assay
Parameters: species or system human

10E8 Fab-binding activity (in words): no binding activity
Sequence: ELXKWAXLWNWFNITNZLWXIK (bicyclic or more) [SAH-MPER(662–683)(C,q)]
